From PMC13493820, “Versatile Glycan Probes for Multiplatform Investigation of Glycan Interactions with Proteins, Viruses, and Cells” (Nature Communications, 2026)

Molecular target: T1, rhesus Langerin (Macaca mulatta, UniProt F7HNH2)
T1 construct: gene CD207; array protein; construct only in supplement
Assay: glycan microarray
Assay type: binding
Settings: labelled compound (FAA probe, immobilised)

T1 sequence (F7HNH2 1-328): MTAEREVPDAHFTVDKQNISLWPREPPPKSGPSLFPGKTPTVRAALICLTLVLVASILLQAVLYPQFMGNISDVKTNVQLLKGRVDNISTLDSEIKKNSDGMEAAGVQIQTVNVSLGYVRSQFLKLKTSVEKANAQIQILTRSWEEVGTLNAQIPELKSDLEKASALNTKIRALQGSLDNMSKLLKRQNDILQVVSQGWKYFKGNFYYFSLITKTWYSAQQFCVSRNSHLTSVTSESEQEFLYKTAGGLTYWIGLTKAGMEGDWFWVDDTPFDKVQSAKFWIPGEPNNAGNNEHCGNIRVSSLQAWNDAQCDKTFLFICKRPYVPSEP

`CC(=O)N[C@H]1[C@H](O[C@H]2[C@H](O)[C@@H](NC(C)=O)C(O)O[C@@H]2CO)O[C@H](CO)[C@@H](O[C@@H]2O[C@H](CO[C@H]3O[C@H](CO[C@H]4O[C@H](CO)[C@@H](O)[C@H](O)[C@@H]4O[C@H]4O[C@H](CO)[C@@H](O)[C@H](O)[C@@H]4O)[C@@H](O)[C@H](O[C@H]4O[C@H](CO)[C@@H](O)[C@H](O)[C@@H]4O[C@H]4O[C@H](CO)[C@@H](O)[C@H](O)[C@@H]4O)[C@@H]3O)[C@@H](O)[C@H](O[C@H]3O[C@H](CO)[C@@H](O)[C@H](O)[C@@H]3O[C@H]3O[C@H](CO)[C@@H](O)[C@H](O)[C@@H]3O[C@H]3O[C@H](CO)[C@@H](O)[C@H](O)[C@@H]3O)[C@@H]2O)[C@@H]1O` (stereo partly shown) [Man9GlcNAc2] was tested, and the glycan microarray was “rhesus Langerin bound almost exclusively to Man9GlcNAc2”.
